In patent US9745289B2, “Aldosterone synthase inhibitors” (Boehringer Ingelheim International GmbH, priority 2014, dated 2017):

The compounds below were run against cortisol synthase (CYP11B1) (Macaca fascicularis, UniProt A0A2K5ULY1) (assay: Inhibition of Cortisol Synthesis). Details: cynomolgus adrenal gland mitochondria; 150 units of CYP11B1, 11-deoxycortisol as substrate, cortisol measured as product.
Assay type: biochemical, cynomolgus monkey
Method: The aldosterone synthase and cortisol synthase inhibition assays employ cynomolgus adrenal gland mitochondria as the source of aldosterone synthase (CYP11B2) and cortisol synthase (CYP11B1). […] Activity of CYP11B2 and CYP11B1 in these preparations is defined as the amount of enzyme that generates 1 pmol of product in one hour under the conditions described.
Assays are performed in 96-well format in a final volume of 60 μL/well, containing 100 mM potassium phosphate, pH 7.4, 1% (v/v) DMSO, and additionally, 2 μM of corticosterone and 50 units of CYP11B2 activity. Reactions are started by the addition of NADPH to 1 mM and allowed to proceed for 90 minutes at 37° C. Reactions are terminated by the addition of 60 μL of MeCN containing an internal standard for mass spectrometry. One hundred microliters are then transferred to a glass filter plate and centrifuged at 570×g for 5 minutes and the filtrate is collected. Reaction product aldosterone is quantified by mass spectrometry. To determine the assay blank value (0% activity), NADPH is omitted from some reactions.
Dose dependent inhibition is quantified by the inclusion of compound at various concentrations. Maximum activity (100%) is defined by reactions containing NADPH, but without compound.
Assays are performed as for aldosterone synthase except for the use of 150 units of CYP11B1, 11-deoxycortisol as substrate and cortisol measured as product.

SMILES | IC50 [µM]
NC(=O)c1cccc2c1OCC(c1cncc(C3(O)CCOCC3)c1)O2 (single isomer, unassigned) [Cpd 1A, 2-[5-(4-Hydroxy-tetrahydro-pyran-4-yl)-pyridin-3-yl]-2,3-dihydro-benzo[1,4]dioxine-5-carboxylic acid amide] | > 100
NC(=O)c1cccc2c1OCC(c1cncc(C3(O)CCOCC3)c1)O2 (single isomer, unassigned) [Cpd 1B, 2-[5-(4-Hydroxy-tetrahydro-pyran-4-yl)-pyridin-3-yl]-2,3-dihydro-benzo[1,4]dioxine-5-carboxylic acid amide] | 24
N#CC1(c2cncc(C3COc4c(cccc4C(N)=O)O3)c2)CC1 (single isomer, unassigned) [Cpd 2A, 2-[5-(1-Cyano-cyclopropyl)-pyridin-3-yl]-2,3-dihydro-benzo[1,4]dioxine-5-carboxylic acid amide] | 0.06
N#CC1(c2cncc(C3COc4c(cccc4C(N)=O)O3)c2)CC1 (single isomer, unassigned) [Cpd 2B, 2-[5-(1-Cyano-cyclopropyl)-pyridin-3-yl]-2,3-dihydro-benzo[1,4]dioxine-5-carboxylic acid amide] | 0.23
NC(=O)c1cccc2c1OCC(c1cncc(CN3CCCCS3(=O)=O)c1)O2 (single isomer, unassigned) [Cpd 3A, 2-[5-(1,1-Dioxo-1λ^6,-[1,2]thiazinan-2-ylmethyl)-pyridin-3-yl]-2,3-dihydro-benzo[1,4]dioxine-5-carboxylic acid amide] | > 30
NC(=O)c1cccc2c1OCC(c1cncc(CN3CCCCS3(=O)=O)c1)O2 (single isomer, unassigned) [Cpd 3B, 2-[5-(1,1-Dioxo-1λ^6,-[1,2]thiazinan-2-ylmethyl)-pyridin-3-yl]-2,3-dihydro-benzo[1,4]dioxine-5-carboxylic acid amide] | 5.6
NC(=O)c1cccc2c1OCC(c1cccnc1)O2 (single isomer, unassigned) [Cpd 4A, 2-Pyridin-3-yl-2,3-dihydro-benzo[1,4]dioxine-5-carboxylic acid amide] | 3.1
NC(=O)c1cccc2c1OCC(c1cccnc1)O2 (single isomer, unassigned) [Cpd 4B, 2-Pyridin-3-yl-2,3-dihydro-benzo[1,4]dioxine-5-carboxylic acid amide] | 2.5
NC(=O)c1cccc2c1OCC(c1cncc(CN3CCCC3=O)c1)O2 (single isomer, unassigned) [Cpd 5A, 2-[5-(2-Oxo-pyrrolidin-1-ylmethyl)-pyridin-3-yl]-2,3-dihydro-benzo[1,4]dioxine-5-carboxylic acid amide] | > 30
NC(=O)c1cccc2c1OCC(c1cncc(CN3CCCC3=O)c1)O2 (single isomer, unassigned) [Cpd 5B, 2-[5-(2-Oxo-pyrrolidin-1-ylmethyl)-pyridin-3-yl]-2,3-dihydro-benzo[1,4]dioxine-5-carboxylic acid amide] | 22
CN1C(=O)CCC1c1cncc(C2COc3c(cccc3C(N)=O)O2)c1 (single isomer, unassigned) [Cpd 6AA, 2-[5-(-1-Methyl-5-oxo-pyrrolidin-2-yl)-pyridin-3-yl]-2,3-dihydro-benzo[1,4]dioxine-5-carboxylic acid amide] | 2.2
CN1C(=O)CCC1c1cncc(C2COc3c(cccc3C(N)=O)O2)c1 (single isomer, unassigned) [Cpd 6AB, 2-[5-(-1-Methyl-5-oxo-pyrrolidin-2-yl)-pyridin-3-yl]-2,3-dihydro-benzo[1,4]dioxine-5-carboxylic acid amide] | 10
CN1C(=O)CCC1c1cncc(C2COc3c(cccc3C(N)=O)O2)c1 (single isomer, unassigned) [Cpd 6BA, 2-[5-(-1-Methyl-5-oxo-pyrrolidin-2-yl)-pyridin-3-yl]-2,3-dihydro-benzo[1,4]dioxine-5-carboxylic acid amide] | > 30
CN1C(=O)CCC1c1cncc(C2COc3c(cccc3C(N)=O)O2)c1 (single isomer, unassigned) [Cpd 6BB, 2-[5-(-1-Methyl-5-oxo-pyrrolidin-2-yl)-pyridin-3-yl]-2,3-dihydro-benzo[1,4]dioxine-5-carboxylic acid amide] | > 30
CC(=O)N1CCC[C@@H](Oc2cncc(C3COc4c(cccc4C(N)=O)O3)c2)C1 (single isomer, unassigned) [Cpd 7A] | > 30
CC(=O)N1CCC[C@@H](Oc2cncc(C3COc4c(cccc4C(N)=O)O3)c2)C1 (single isomer, unassigned) [Cpd 7B] | 19

SMILES | IC50 [µM]
CS(=O)(=O)Cc1cncc(C2COc3c(cccc3C(N)=O)O2)c1 (single isomer, unassigned) [Cpd 8A, 2-(5-Methanesulfonylmethyl-pyridin-3-yl)-2,3-dihydro-benzo[1,4]dioxine-5-carboxylic acid amide] | > 30
CS(=O)(=O)Cc1cncc(C2COc3c(cccc3C(N)=O)O2)c1 (single isomer, unassigned) [Cpd 8B, 2-(5-Methanesulfonylmethyl-pyridin-3-yl)-2,3-dihydro-benzo[1,4]dioxine-5-carboxylic acid amide] | 13
NC(=O)c1cccc2c1OCC(c1cncc(C(F)(F)F)c1)O2 (single isomer, unassigned) [Cpd 9A, 2-(5-Trifluoromethyl-pyridin-3-yl)-2,3-dihydro-benzo[1,4]dioxine-5-carboxylic acid amide] | 5.2
NC(=O)c1cccc2c1OCC(c1cncc(C(F)(F)F)c1)O2 (single isomer, unassigned) [Cpd 9B, 2-(5-Trifluoromethyl-pyridin-3-yl)-2,3-dihydro-benzo[1,4]dioxine-5-carboxylic acid amide] | 2.2
NC(=O)c1cccc2c1OCC(c1cncc(C3CCOCC3)c1)O2 (single isomer, unassigned) [Cpd 10A, 2-[5-(Tetrahydro-pyran-4-yl)-pyridin-3-yl]-2,3-dihydro-benzo[1,4]dioxine-5-carboxylic acid amide] | 3.4
NC(=O)c1cccc2c1OCC(c1cncc(C3CCOCC3)c1)O2 (single isomer, unassigned) [Cpd 10B, 2-[5-(Tetrahydro-pyran-4-yl)-pyridin-3-yl]-2,3-dihydro-benzo[1,4]dioxine-5-carboxylic acid amide] | 0.23
NC(=O)c1cccc2c1OCC(c1cncc(C3(O)CCCCC3)c1)O2 (single isomer, unassigned) [Cpd 11A, 2-[5-(1-Hydroxy-cyclohexyl)-pyridin-3-yl]-2,3-dihydro-benzo[1,4]dioxine-5-carboxylic acid amide] | 24
NC(=O)c1cccc2c1OCC(c1cncc(C3(O)CCCCC3)c1)O2 (single isomer, unassigned) [Cpd 11B, 2-[5-(1-Hydroxy-cyclohexyl)-pyridin-3-yl]-2,3-dihydro-benzo[1,4]dioxine-5-carboxylic acid amide] | 4.4
CC(=O)N1CCC(Oc2cncc(C3COc4c(cccc4C(N)=O)O3)c2)CC1 (single isomer, unassigned) [Cpd 12A, 2-[5-(1-Acetyl-piperidin-4-yloxy)-pyridin-3-yl]-2,3-dihydro-benzo[1,4]dioxine-5-carboxylic acid amide] | 18
CC(=O)N1CCC(Oc2cncc(C3COc4c(cccc4C(N)=O)O3)c2)CC1 (single isomer, unassigned) [Cpd 12B, 2-[5-(1-Acetyl-piperidin-4-yloxy)-pyridin-3-yl]-2,3-dihydro-benzo[1,4]dioxine-5-carboxylic acid amide] | 2
NC(=O)c1cccc2c1OCC(c1cncc(CC(=O)N3CCOCC3)c1)O2 (single isomer, unassigned) [Cpd 13A, 2-[5-(2-Morpholin-4-yl-2-oxo-ethyl)-pyridin-3-yl]-2,3-dihydro-benzo[1,4]dioxine-5-carboxylic acid amide] | > 100
NC(=O)c1cccc2c1OCC(c1cncc(CC(=O)N3CCOCC3)c1)O2 (single isomer, unassigned) [Cpd 13B, 2-[5-(2-Morpholin-4-yl-2-oxo-ethyl)-pyridin-3-yl]-2,3-dihydro-benzo[1,4]dioxine-5-carboxylic acid amide] | 66
NC(=O)c1cccc2c1OCC(c1cncc(CNC(=O)C3CC3)c1)O2 (single isomer, unassigned) [Cpd 14A, 2-{5-[(Cyclopropanecarbonyl-amino)-methyl]-pyridin-3-yl}-2,3-dihydro-benzo[1,4]dioxine-5-carboxylic acid amide.] | 12
NC(=O)c1cccc2c1OCC(c1cncc(CNC(=O)C3CC3)c1)O2 (single isomer, unassigned) [Cpd 14B, 2-{5-[(Cyclopropanecarbonyl-amino)-methyl]-pyridin-3-yl}-2,3-dihydro-benzo[1,4]dioxine-5-carboxylic acid amide.] | > 30
NC(=O)c1cccc2c1OCC(c1cncc(CN3CCOCC3=O)c1)O2 (single isomer, unassigned) [Cpd 15A, 2-[5-(3-Oxo-morpholin-4-ylmethyl)-pyridin-3-yl]-2,3-dihydro-benzo[1,4]dioxine-5-carboxylic acid amide] | 15
NC(=O)c1cccc2c1OCC(c1cncc(CN3CCOCC3=O)c1)O2 (single isomer, unassigned) [Cpd 15B, 2-[5-(3-Oxo-morpholin-4-ylmethyl)-pyridin-3-yl]-2,3-dihydro-benzo[1,4]dioxine-5-carboxylic acid amide] | > 30
